Assay results published in ChEMBL document CHEMBL1255183, “Role of the phenolic hydroxyl group in the biological activities of simplified analogue of aplysiatoxin with antiproliferative activity” (Bioorg Med Chem Lett, 2010).

What was measured:
DMS-273 = assay: Cytotoxicity against human DMS273 cells; assay type: functional
DMS-114 = assay: Cytotoxicity against human DMS114 cells; assay type: functional
Raji [1] = assay: Induction of EBA-early antigen production in human Raji cells at 10^-7 M; assay type: cell-based; settings: human gammaherpesvirus 4
[2] = Cytotoxicity against human Raji cells assessed as viability at 1 uM in presence of TPA; assay type: cell-based; settings: read-out: Activity
[3] = Cytotoxicity against human Raji cells assessed as viability at 1 uM; assay type: cell-based; settings: read-out: Activity
[4] = Cytotoxicity against human Raji cells assessed as viability at 10^-7 M in presence of TPA; assay type: cell-based; settings: read-out: Activity
[5] = Cytotoxicity against human Raji cells assessed as viability at 10^-7 M; assay type: cell-based; settings: read-out: Activity
Raji [6] = assay: Inhibition of TPA-induced EBA-early antigen production in human Raji cells at 1 uM; assay type: cell-based; parameters: scale not given: the % may be the effect or the level left; settings: human gammaherpesvirus 4
Raji [7] = assay: Induction of EBA-early antigen production in human Raji cells at 1 uM; assay type: cell-based; settings: human gammaherpesvirus 4
Raji [8] = assay: Inhibition of TPA-induced EBA-early antigen production in human Raji cells at 10^-7 M; assay type: cell-based; parameters: scale not given: the % may be the effect or the level left; settings: human gammaherpesvirus 4
[9] = target: Protein kinase C alpha type (Homo sapiens, UniProt P17252); assay: Inhibition of [3H]PDBu binding to PKC alpha C1A peptide
[10] = target: Protein kinase C beta type (Homo sapiens, UniProt P05771); assay: Inhibition of [3H]PDBu binding to PKC beta C1A peptide
[11] = target: Protein kinase C gamma type (Homo sapiens, UniProt P05129); assay: Inhibition of [3H]PDBu binding to PKC gamma C1A peptide
[12] = target: T1, Protein kinase C delta type (Homo sapiens, UniProt Q05655); assay: Inhibition of [3H]PDBu binding to PKC delta C1A peptide
[13] = target: T1, Protein kinase C delta type; assay: Inhibition of [3H]PDBu binding to PKC delta C1B peptide
[14] = target: T2, Protein kinase C epsilon type (Homo sapiens, UniProt Q02156); assay: Inhibition of [3H]PDBu binding to PKCepsilon C1B peptide
T2 sequence (Q02156 whole entry): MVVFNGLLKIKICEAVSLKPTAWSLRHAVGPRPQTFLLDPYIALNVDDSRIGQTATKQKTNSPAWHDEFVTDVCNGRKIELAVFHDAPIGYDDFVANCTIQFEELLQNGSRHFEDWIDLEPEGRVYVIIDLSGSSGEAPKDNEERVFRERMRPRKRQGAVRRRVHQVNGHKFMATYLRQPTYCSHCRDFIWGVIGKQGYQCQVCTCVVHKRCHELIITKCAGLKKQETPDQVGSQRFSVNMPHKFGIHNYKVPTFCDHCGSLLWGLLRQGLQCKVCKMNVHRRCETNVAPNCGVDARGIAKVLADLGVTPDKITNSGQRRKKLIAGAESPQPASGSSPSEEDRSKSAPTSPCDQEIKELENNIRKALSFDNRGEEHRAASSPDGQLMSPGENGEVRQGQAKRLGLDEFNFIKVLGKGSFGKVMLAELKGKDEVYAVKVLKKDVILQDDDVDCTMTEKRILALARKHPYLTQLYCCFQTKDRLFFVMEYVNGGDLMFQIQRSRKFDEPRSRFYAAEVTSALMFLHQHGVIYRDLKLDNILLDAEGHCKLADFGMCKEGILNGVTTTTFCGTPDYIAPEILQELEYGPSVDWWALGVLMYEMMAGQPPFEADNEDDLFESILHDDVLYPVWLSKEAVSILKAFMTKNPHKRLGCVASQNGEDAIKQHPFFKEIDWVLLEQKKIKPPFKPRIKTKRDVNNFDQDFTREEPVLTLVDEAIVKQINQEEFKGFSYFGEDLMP

[15] = target: Protein kinase C eta type (Homo sapiens, UniProt P24723); assay: Inhibition of [3H]PDBu binding to PKCeta C1B peptide
[16] = target: Protein kinase C theta type (Homo sapiens, UniProt Q04759); assay: Inhibition of [3H]PDBu binding to PKCtheta C1B peptide
[17] = Cytotoxicity against human HBC4 cells; assay type: functional
[18] = Cytotoxicity against human BSY1 cells; assay type: functional; settings: BSY-1
MDA-MB-231 = assay: Cytotoxicity against human MDA-MB-231 cells; assay type: functional
SF-295 = assay: Cytotoxicity against human SF295 cells; assay type: functional
HCC 2998 = assay: Cytotoxicity against human HCC2998 cells; assay type: functional
NCI-H460 = assay: Cytotoxicity against human NCI-H460 cells; assay type: functional
A549 = assay: Cytotoxicity against human A549 cells; assay type: functional
LOX IMVI = assay: Cytotoxicity against human LOXIMVI cells; assay type: functional
St-4 = assay: Cytotoxicity against human St-4 cells; assay type: functional
MKN-45 = assay: Cytotoxicity against human MKN45 cells; assay type: functional
PC-3 = assay: Cytotoxicity against human PC3 cells; assay type: functional
MCF7 = assay: Cytotoxicity against human MCF7 cells; assay type: functional
SF-268 = assay: Cytotoxicity against human SF268 cells; assay type: functional
SF-539 = assay: Cytotoxicity against human SF539 cells; assay type: functional
U-251 = assay: Cytotoxicity against human U251 cells; assay type: functional
SNB-75 = assay: Cytotoxicity against human SNB75 cells; assay type: functional
SNB-78 = assay: Cytotoxicity against human SNB78 cells; assay type: functional
HT-29 = assay: Cytotoxicity against human HT-29 cells; assay type: functional
HCT-15 = assay: Cytotoxicity against human HCT15 cells; assay type: functional
HCT-116 = assay: Cytotoxicity against human HCT116 cells; assay type: functional
NCI-H23 = assay: Cytotoxicity against human NCI-H23 cells; assay type: functional
NCI-H226 = assay: Cytotoxicity against human NCI-H226 cells; assay type: functional
NCI-H522 = assay: Cytotoxicity against human NCI-H522 cells; assay type: functional
OVCAR-3 = assay: Cytotoxicity against human OVCAR-3 cells; assay type: functional
OVCAR-4 = assay: Cytotoxicity against human OVCAR4 cells; assay type: functional
OVCAR-5 = assay: Cytotoxicity against human OVCAR5 cells; assay type: functional
OVCAR-8 = assay: Cytotoxicity against human OVCAR8 cells; assay type: functional
[19] = Cytotoxicity against human RXF631L cells; assay type: functional; settings: RXF 631
SK-OV-3 = assay: Cytotoxicity against human SKOV3 cells; assay type: functional
ACHN = assay: Cytotoxicity against human ACHN cells; assay type: functional
[20] = Cytotoxicity against human MKN1 cells; assay type: functional; settings: MKN-1
MKN-7 = assay: Cytotoxicity against human MKN7 cells; assay type: functional
MKN-28 = assay: Cytotoxicity against human MKN28 cells; assay type: functional
MKN-74 = assay: Cytotoxicity against human MKN74 cells; assay type: functional
DU-145 = assay: Cytotoxicity against human DU145 cells; assay type: functional

T1 sequence (Q05655 whole entry): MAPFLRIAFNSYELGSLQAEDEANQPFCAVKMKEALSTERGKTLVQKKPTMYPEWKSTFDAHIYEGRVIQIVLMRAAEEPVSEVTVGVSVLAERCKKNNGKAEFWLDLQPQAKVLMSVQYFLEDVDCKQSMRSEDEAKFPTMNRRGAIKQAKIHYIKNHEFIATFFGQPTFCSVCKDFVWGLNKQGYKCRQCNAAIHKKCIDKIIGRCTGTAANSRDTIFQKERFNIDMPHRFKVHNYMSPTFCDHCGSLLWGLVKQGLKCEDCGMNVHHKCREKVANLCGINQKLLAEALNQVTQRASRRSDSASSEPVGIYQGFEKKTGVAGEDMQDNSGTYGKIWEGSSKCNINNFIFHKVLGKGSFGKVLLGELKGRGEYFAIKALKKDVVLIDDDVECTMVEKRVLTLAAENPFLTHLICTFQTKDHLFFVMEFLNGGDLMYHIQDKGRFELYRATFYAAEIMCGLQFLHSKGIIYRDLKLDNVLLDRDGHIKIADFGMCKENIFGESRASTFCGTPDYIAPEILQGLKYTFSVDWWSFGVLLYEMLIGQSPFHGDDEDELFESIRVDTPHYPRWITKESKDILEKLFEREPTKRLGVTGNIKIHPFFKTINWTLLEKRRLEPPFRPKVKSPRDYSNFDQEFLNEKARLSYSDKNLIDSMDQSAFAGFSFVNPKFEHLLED
Chain of Protein kinase C eta type (P24723 whole entry): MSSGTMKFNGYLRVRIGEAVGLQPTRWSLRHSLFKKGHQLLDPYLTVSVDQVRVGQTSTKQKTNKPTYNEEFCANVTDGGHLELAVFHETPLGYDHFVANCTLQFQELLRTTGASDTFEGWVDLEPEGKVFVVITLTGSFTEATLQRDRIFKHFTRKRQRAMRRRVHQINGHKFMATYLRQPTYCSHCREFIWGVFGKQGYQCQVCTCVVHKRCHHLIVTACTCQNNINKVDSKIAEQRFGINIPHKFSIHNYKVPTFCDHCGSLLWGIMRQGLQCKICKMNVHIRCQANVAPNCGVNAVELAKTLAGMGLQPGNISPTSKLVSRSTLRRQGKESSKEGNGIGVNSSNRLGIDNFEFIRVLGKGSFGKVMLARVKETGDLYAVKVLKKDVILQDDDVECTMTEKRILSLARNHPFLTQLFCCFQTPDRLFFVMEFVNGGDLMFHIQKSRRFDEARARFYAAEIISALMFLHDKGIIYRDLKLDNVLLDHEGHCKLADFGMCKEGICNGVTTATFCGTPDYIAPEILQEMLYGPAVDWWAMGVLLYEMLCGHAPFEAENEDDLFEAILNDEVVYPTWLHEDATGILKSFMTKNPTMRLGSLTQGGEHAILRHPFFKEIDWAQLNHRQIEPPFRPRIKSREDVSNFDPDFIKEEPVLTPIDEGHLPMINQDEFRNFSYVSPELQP
Chain of Protein kinase C theta type (Q04759 whole entry): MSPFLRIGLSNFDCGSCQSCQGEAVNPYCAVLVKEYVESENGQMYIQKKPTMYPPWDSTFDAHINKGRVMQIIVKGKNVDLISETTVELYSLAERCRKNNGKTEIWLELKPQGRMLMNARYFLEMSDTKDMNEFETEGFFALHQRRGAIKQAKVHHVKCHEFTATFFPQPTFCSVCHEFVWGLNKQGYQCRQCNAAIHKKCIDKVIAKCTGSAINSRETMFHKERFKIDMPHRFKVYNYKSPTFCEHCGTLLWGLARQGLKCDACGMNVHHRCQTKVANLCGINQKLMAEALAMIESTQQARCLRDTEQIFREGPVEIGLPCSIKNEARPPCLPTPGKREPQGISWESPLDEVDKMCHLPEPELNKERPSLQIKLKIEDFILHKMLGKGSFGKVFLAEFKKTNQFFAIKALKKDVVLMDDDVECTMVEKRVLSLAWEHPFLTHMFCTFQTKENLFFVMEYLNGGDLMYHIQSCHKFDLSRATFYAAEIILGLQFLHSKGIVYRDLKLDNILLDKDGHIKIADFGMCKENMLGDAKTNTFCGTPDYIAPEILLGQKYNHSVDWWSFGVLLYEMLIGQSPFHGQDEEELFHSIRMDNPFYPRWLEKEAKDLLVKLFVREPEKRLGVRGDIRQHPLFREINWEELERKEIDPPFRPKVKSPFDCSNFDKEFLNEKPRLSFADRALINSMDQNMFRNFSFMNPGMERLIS
Chain of Protein kinase C beta type (P05771 whole entry): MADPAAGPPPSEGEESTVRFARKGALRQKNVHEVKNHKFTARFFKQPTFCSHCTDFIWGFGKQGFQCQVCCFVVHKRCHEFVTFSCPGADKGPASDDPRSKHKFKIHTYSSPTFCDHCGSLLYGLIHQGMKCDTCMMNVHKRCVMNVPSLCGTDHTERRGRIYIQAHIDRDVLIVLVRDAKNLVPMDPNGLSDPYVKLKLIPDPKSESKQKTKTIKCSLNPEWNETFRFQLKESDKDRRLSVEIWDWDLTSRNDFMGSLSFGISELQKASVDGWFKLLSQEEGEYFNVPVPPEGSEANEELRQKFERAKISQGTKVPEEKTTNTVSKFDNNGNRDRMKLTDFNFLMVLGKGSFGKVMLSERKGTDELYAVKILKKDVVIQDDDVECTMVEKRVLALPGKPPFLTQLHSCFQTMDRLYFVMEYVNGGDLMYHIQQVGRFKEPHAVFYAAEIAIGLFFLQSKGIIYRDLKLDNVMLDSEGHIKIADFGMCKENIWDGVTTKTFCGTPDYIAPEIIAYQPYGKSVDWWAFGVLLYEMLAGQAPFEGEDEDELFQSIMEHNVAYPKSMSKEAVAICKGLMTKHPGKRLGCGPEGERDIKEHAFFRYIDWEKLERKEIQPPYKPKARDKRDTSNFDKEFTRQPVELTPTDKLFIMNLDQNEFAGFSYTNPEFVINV

## CC1(C)CC[C@@H]2CC(=O)O[C@@H](CO)CC(=O)O[C@@H]3C[C@@H](CCCCc4ccccc4)O[C@@]1(C3)O2
DMS-273
  GI50: 10.5 µM
DMS-114
  GI50: 14.1 µM
Raji [1]
  Activity: 9.7%
[2]
  viability at 1 µM: 60%
[3]
  viability at 1 µM: 60%
[4]
  viability at 0.1 µM: 60%
[5]
  viability at 0.1 µM: 60%
Raji [6]
  Activity: 13.1%
Raji [7]
  Activity: 10.5%
Raji [8]
  Activity: 15.2%
[9]
  Ki: 0.12 µM
[10]
  Ki: 0.14 µM
[11]
  Ki: 0.08 µM
[12]
  Ki: 0.13 µM
[13]
  Ki: 0.0098 µM
[14]
  Ki: 0.037 µM
[15]
  Ki: 0.012 µM
[16]
  Ki: 0.0081 µM
[17]
  GI50: 0.525 µM
[18]
  GI50: 6.76 µM
MDA-MB-231
  GI50: 2.14 µM
SF-295
  GI50: 7.24 µM
HCC 2998
  GI50: 2.95 µM
NCI-H460
  GI50: 1.48 µM
A549
  GI50: 3.24 µM
LOX IMVI
  GI50: 6.76 µM
St-4
  GI50: 0.891 µM
MKN-45
  GI50: 0.813 µM
PC-3
  GI50: 5.5 µM
MCF7
  GI50: 16.2 µM
SF-268
  GI50: 12.9 µM
SF-539
  GI50: 10.5 µM
U-251
  GI50: 12.3 µM
SNB-75
  GI50: 12 µM
SNB-78
  GI50: 15.8 µM
HT-29
  GI50: 11.2 µM
HCT-15
  GI50: 16.6 µM
HCT-116
  GI50: 12.3 µM
NCI-H23
  GI50: 11.2 µM
NCI-H226
  GI50: 11.5 µM
NCI-H522
  GI50: 13.2 µM
OVCAR-3
  GI50: 13.5 µM
OVCAR-4
  GI50: 15.1 µM
OVCAR-5
  GI50: 11 µM
OVCAR-8
  GI50: 17.8 µM
[19]
  GI50: 13.8 µM
SK-OV-3
  GI50: 17 µM
ACHN
  GI50: 10 µM
[20]
  GI50: 12.6 µM
MKN-7
  GI50: 11.5 µM
MKN-28
  GI50: 16.6 µM
MKN-74
  GI50: 14.8 µM
DU-145
  GI50: 12 µM

## O=C1C[C@H](CO)OC(=O)C[C@H]2CCC[C@]3(C[C@@H](C[C@@H](CCCCc4ccccc4)O3)O1)O2
[9]
  Ki: 2.4 µM
[10]
  Ki: 3.5 µM
[11]
  Ki: 1.6 µM
[12]
  Ki: 6.8 µM
[13]
  Ki: 0.17 µM
[14]
  Ki: 0.82 µM
[15]
  Ki: 0.18 µM
[16]
  Ki: 0.17 µM

## CCC/C=C/C=C/C(=O)O[C@H]1/C(=C/C(=O)OC)C[C@H]2C[C@H]([C@@H](C)O)OC(=O)C[C@H](O)C[C@@H]3C[C@H](OC(C)=O)C(C)(C)[C@](O)(C[C@@H]4C/C(=C/C(=O)OC)C[C@H](/C=C/C(C)(C)[C@]1(O)O2)O4)O3 [BRYOSTATIN 1]
Raji [1]
  Activity: 1.4%
[2]
  viability at 1 µM: 40%
[3]
  viability at 1 µM: 40%
[4]
  viability at 0.1 µM: 60%
[5]
  viability at 0.1 µM: 60%
Raji [6]
  Activity: 5%
Raji [7]
  Activity: 2%
Raji [8]
  Activity: 6.8%
MDA-MB-231
  GI50: 6.31 µM
SF-295
  GI50: 6.31 µM
HCC 2998
  GI50: 5.01 µM
NCI-H460
  GI50: 2.51 µM
A549
  GI50: 6.31 µM
PC-3
  GI50: 5.01 µM
